Results on 5 compounds are retold here after paper PMC13289212, “HIVIL: A human in vitro inflammatory liver model recapitulates immune-associated drug effects with high predictivity” (NAM journal, 2025).

The test system of data set [1] is IL-6. The experiment in a line: IL-6 ELISA in HIVIL (iKCs co-cultured with iHeps, LPS, 48 hr). The class given is cell-based, human. The settings on record: HIVIL; for IC50: Homo sapiens, LPS, 48 hr; for IL-6 response: result in words. From the text:
(§1) Human iPSC cell line iPS (IMR90)-4 was purchased from WiCell Research Institute (Madison, WI), and maintained with a feeder-free method according to the instruction from […] Technologies (Vancouver, BC, Canada). The protocol of differentiation towards iKCs and iHeps as described previously with slight modification ([Tasnim et al., 2019]; [Cai et al., 2012]), respectively. […] More details are provided in Supplementary Methods. After differentiation, iKCs was harvested using 0.05 % trypsin-EDTA (Gibco, Waltham, Massachusetts, USA), while iHeps were dissociated with TrypLE^TM (Gibco). iHep suspension was further filtered through a 40 µm cell strainer to remove extracellular matrix clumps. Cell suspension was centrifuged at 1000 rpm for 5 min. For co-culture set up, tissue culture plates were coated with Rat tail collagen I (Gibco) diluted 100-fold in 0.02 N acetic acid, and incubated at 37 °C for 1 h and washed 3 times with PBS. According to the protocol optimized by [Tasnim et al. (2019)], iKCs was firstly seeded at a density of 14,000 per well on 96-well plate with Advanced DMEM (plus supplements) containing 5 % FBS. On the following day, iHeps were added at a density of 35,000 per well in Williams’ Medium E (plus supplements) (iHep: iKCs ratio = 2.5: 1). This reflects the physiological ratio of these cells in vivo under inflammatory conditions ([Tasnim et al., 2021]). Fresh media containing drugs was applied to co-cultures the next day. 50,000 cells were seeded to establish iHeps monoculture. THP-1 cells were kindly obtained from Dr. Eliza Fong and cultured as described by [Zeng et al. (2015)]. Details provided in Supplementary Methods.
(§2) Stock solutions of drugs were prepared in dimethyl sulfoxide (DMSO) and dissolved in medium prior to use. […] For these two drugs, the highest DMSO concentration was 1 %. Supernatant was collected at 48 hr for measurement of cytokines, and remaining cells were subjected to viability assay prior to lysis for RNA extraction.
(§3) Enzyme-linked immunosorbent assay (ELISA) for measurement of cytokines: Interleukin-6 (IL-6), interleukin-10 (IL-10) and tumor necrosis factor alpha (TNFα) levels in the media were measured using the corresponding human-based ELISA kits (Abcam, Cambridge, United Kingdom) according to manufacturer’s instructions. The cytokine production from dosed cells was normalized with the viability value from the same well. The normalized cytokine level upon drug treatments was further presented as percentage of DMSO+LPS. […] This normalization approach has been used in previous studies (Rose et al. 2016).

For data set [2], the system named is TNFα. As to the kind of experiment: TNFα ELISA in HIVIL (iKCs co-cultured with iHeps, LPS, 48 hr). The class given is cell-based, human.
Description: as §1, §2, §3

The test system of data set [3] is HIVIL (iKCs co-cultured with iHeps). As to the kind of experiment: AlamarBlue cell viability in HIVIL. To be noted: for IC50: Homo sapiens, 48 h, read-out: IC50: viability. The protocol: as §2
Data set [4] concerns IL-6. The experiment in a line: IL-6 production of iKC mono-culture. It counts as cell-based, human. The settings on record: result in words. On the procedure:
(§4) Enzyme-linked immunosorbent assay (ELISA) for measurement of cytokines: Interleukin-6 (IL-6), interleukin-10 (IL-10) and tumor necrosis factor alpha (TNFα) levels in the media were measured using the corresponding human-based ELISA kits (Abcam, Cambridge, United Kingdom) according to manufacturer’s instructions. The cytokine production from dosed cells was normalized with the viability value from the same well. The normalized cytokine level upon drug treatments was further presented as percentage of DMSO+LPS. Normalization to viability per well ensures that any changes in cytokines are not due to changes in cell numbers upon drug treatment and normalization to DMSO+LPS allows better comparison between different batches of experiments. This normalization approach has been used in previous studies (Rose et al. 2016).

The conditions of data set [5]: Cammett et al. 2009, Mendes et al. 2014, cited from earlier work.
Data set [6] concerns TNFα. To be noted: ref Shaw et al. 2010; Zou et al. 2009; Bekker et al. 2012; Gandhi et al. 2013; Heidari et al. 2019; cited from earlier work.
For data set [7] the following is noted: FDA-labeling information; ref Chen et al. 2016; cited from earlier work.
For data set [8] the following is noted: binary classification by human hepatotoxicity; ref Thakkar et al. 2020; cited from earlier work.
The test system of data set [9] is iKCs mono-culture. The experiment in a line: Cell viability of iKCs mono-culture. Also on record: dose or concentration left out as unconfirmed.
Description: (§5) Cell viability assays: Cell viability was examined with AlamarBlue^TM cell viability assay (Thermo Fisher Scientific Inc.) according to manufacturer’s instructions. Briefly, cells were exposed to AlamarBlue^TM working solution, which was diluted 10-fold using PBS containing 2 mg/mL of glucose, for 1 hour. Color change in the solution was measured using fluorescence (Ex: 530nm, Em: 590nm) in Tecan Microplate Reader M1000 PRO. The viability of dosed cells was presented as percentage of the corresponding vehicle control.
The next data set has as its system cytokines. Also noted: method as in ref Ganey et al. 2004; Honarmand et al. 2012; Manna and Aggarwal 1999; Yao et al. 2004. To be noted: ref Ganey et al. 2004; Honarmand et al. 2012; Manna and Aggarwal 1999; Yao et al. 2004; cited from earlier work.
Another data set relates to iHeps. As to the kind of experiment: RNA-Seq of iHeps from mono-culture and HIVIL. It counts as cell-based, human. The settings on record: regardless of culture conditions, result in words. From the text:
Subsequent analyses compared gene fold-changes of treated samples against their respective vehicle controls: "m" and "c" indicate mono- and co-culture, and "–" and "+" represent the absence or presence of LPS. […] However, this is only applicable for co-cultures where downstream effects can be traced back to cytokine changes, and not in monocultures where significant upstream cytokine changes are not observed.
RNA extraction was done using TRIzol and analyzed on a Tapestation 4200 to determine RNA Integrity Number (RIN). Only samples with RIN > 8 were sequenced. Illumina Stranded mRNA multiplexing was done with unique 96 dual indices, and all samples sequenced on the same lane of NovaSeq 6000 S4 flowcell. Data normalization was performed using DESeq2 v1.32.0 ([Love et al., 2014]) on the R programming language v4.1.0 ([R Core Team, 2021]; [R Team, 2021]). Gene enrichment analysis was done with fgsea v1.18 ([Korotkevich et al., 2021]) with gene sets downloaded from MSigDB and KEGG pathway visualization done via pathview v1.32 ([Kanehisa et al., 2021]; [Luo and Brouwer, 2013]). Other plots were produced using ggplot2 v3.3.5 and scatterplot3d v0.3-41 ([Ligges and Maechler, 2003]). The RNA-Seq dataset has been deposited in NCBI under accession number GSE189320.
RNA seq and analysis: After 48 hr of drug treatment, iHeps cultured in mono-culture and HIVIL were both subjected to TrypLE^TM dissociation, and subsequently sorted with magnetic separation with the CD163 Microbead kit (Miltenyi Biotec, Bergisch Gladbach, Germany) to obtain only iHeps. Flow-through was collected, pelleted down and snap-frozen in liquid nitrogen, before storage at -80°C. Lysates were sent to the Genome Research Informatics and Data Science platform (Agency for Science, Technology and Research, Singapore). RNA extraction was done using TRIzol and analyzed on a Tapestation 4200 to determine RNA Integrity Number (RIN). All sequenced samples included for further analysis had RIN > 8. Illumina Stranded mRNA multiplexing was done with unique 96 dual indices, and all samples sequenced on the same lane of NovaSeq 6000 S4 flowcell. Sequenced reads were trimmed for adaptor sequence using Trim Galore v0.6.4, then aligned to human genome build GRCh38 using STAR_2.6.1d. Aligned reads are summarized into count matrices using featureCounts v1.6.4 with the gene annotation file from GENCODE v37.
Data normalization was performed using DESeq2 v1.32.0 (Love et al. 2014) on the R programming language v4.1.0 (Core Team 2021; Team 2021). Gene enrichment analysis was done with fgsea v1.18 (Korotkevich et al. 2021) with gene sets downloaded from MSigDB and KEGG pathway visualization done via pathview v1.32 (Kanehisa et al. 2021; Luo and Brouwer 2013). Other plots were produced using ggplot2 v3.3.5 and scatterplot3d v0.3-41 (Ligges and Maechler 2003). The RNA-Seq dataset has been deposited in NCBI under accession number GSE189320.

For data set [10], the system named is IL-6. As to the kind of experiment: IL-6 ELISA in iPSC(F4)-derived HIVIL. The class given is cell-based, human. To be noted: result in words. The protocol:
as §4

A further data set deals with iPSC(F4)-derived HIVIL. The experiment in a line: Cell viability in iPSC(F4)-derived HIVIL. It counts as cell-based, human. To be noted: result in words.
The subject of data set [11] is iKCs mono-culture.
Description: as §5
For data set [12], the system named is IL-6. Also noted: method as in Steuerwald et al. 2013; Mahdy et al. 2002; Kang et al. 2001. To be noted: ref Steuerwald et al. 2013; Mahdy et al. 2002; Kang et al. 2001; cited from earlier work.
In another data set the test system is NF-κB. Also noted: method as in Wahl et al. 1998. To be noted: ref Wahl et al. 1998; cited from earlier work.
Data set [13] has as its system IL-6. Also noted: method as in ref Hassan et al. 2016; Giustarini et al. 2019; Higuchi et al. 2012; Dik et al. 2018. The settings on record: ref Hassan et al. 2016; Giustarini et al. 2019; Higuchi et al. 2012; Dik et al. 2018; cited from earlier work.
The mark [14] stands for this setting: ref in each cell: Ademisoye et al. 2018, Xu et al. 2008, Agabeyoglu and Incecayir 2009, Rojanasthien et al. 2007, Reunanen et al. 1992, Li et al. 2002, Hong-mei et al. 2013, Bareggi et al. 1987, Jiang et al. 2008.

The structures appear in SMILES notation. Where two headings read alike, the source gives them in different places. Where only a bound is given, the exact number is not on record here.

As to `CN(C)CCCN1c2ccccc2Sc2ccc(Cl)cc21` [CPZ, Chlorpromazine], in the data set on IL-6 [1], the “group by drug-dependent IL-6 production” value is on record as “dose-dependent inhibition”. Further, the IC50 stood at 12.9 µM in the data set with IL-6 [1] and 34.4 µM in data set [3]. In addition, in the data set on TNFα [2], the “dose at which TNFα induction was observed” value was 25 µM. Besides, in the data set with IL-6 [4], the “IL-6 / cytokine production in iKC mono-culture” value is on record as “higher than that in the HIVIL model”. The Cmax in data set [5] (setting [14]) and in data set [5] (ref in each cell: Xu et al. 2008) was 0.8 µM throughout. Besides, in the data set with TNFα [6], the “Reported in-vivo (murine) responses: TNFα” value was “TNFα↑ (Gandhi et al. 2013)”. In data set [7], the DILIrank entry was “less”. In addition, the DILIst in [8] is 1. In the data set with iKCs mono-culture [9], the “decrease in viability in iKCs” value was determined as 50%.

With `Cc1oncc1C(=O)Nc1ccc(C(F)(F)F)cc1` [LFM, leflunomide], in the data set with IL-6 [1], the “group by drug-dependent IL-6 production” value is reported as “dose-dependent induction” and the “increase in IL-6” value is 3.1 fold. Besides, the Cmax in data set [5] (setting [14]) was 24.8 µM. Further, the “Reported in-vivo (murine) responses: cytokines” value in the data set on cytokines is “cytokines↓ via NF-kB (Manna and Aggarwal 1999; Yao et al. 2004)”. Besides, the DILIrank entry in data set [7] is reported as “most”. The DILIst in data set [8] is listed as 1.

Take `C[C@H]1COc2c(N3CCN(C)CC3)c(F)cc3c(=O)c(C(=O)O)cn1c23` [LVX, levofloxacin]: in the data set on IL-6 [1], the “group by drug-dependent IL-6 production” value is “no dose-dependent changes” and the IL-6 response result is “did not cause any change”. Moreover, in [3] (HIVIL, result in words), the “change in cell viability” value is on record as “did not cause any change”. In addition, the “viability profiles among iHeps, iKCs and HIVIL” value in data set [3] (comparison of mono-cultures and co-culture) is reported as “similar”. Besides, the “IL-6 transcription in iHeps” value with iHeps is recorded as “remained unchanged”. Also, in the data set with IL-6 [10], the IL-6 production result was “did not influence”. For the same compound, in the data set with iPSC(F4)-derived HIVIL, the cell viability result is “did not influence”. Also, the DILIrank result in data set [7] is given as “most”. Moreover, the DILIst in data set [8] is 1.

As for `CC1=C(CC(=O)O)c2cc(F)ccc2/C1=C\c1ccc([S+](C)[O-])cc1` (stereo not drawn) [SLD, sulindac], in the data set with IL-6 [1], the “group by drug-dependent IL-6 production” value is listed as “dose-dependent inhibition”, the “reduction of IL-6” value stood at 50% and inhibition was half-maximal at 381 µM (IC50). For the same compound, the “dose at which TNFα induction was observed” value in the data set on TNFα [2] is less than 200 µM. Besides, in data set [3], the IC50 is 2060 µM. Also, the “IL-6 / cytokine production in iKC mono-culture” value in the data set on IL-6 [4] is listed as “abolished”. In addition, the “toxicity to iKCs mono-culture compared to iHeps mono-culture and HIVIL” value with iKCs mono-culture [11] was “substantially higher toxicity”. Also, the “Reported human responses: IL-6” value in the data set with IL-6 [12] is “mechanistic IL-6↓ (Kang et al. 2001)”. In addition, the “Reported in-vivo (murine) responses: TNFα” value in the data set with TNFα [6] was “TNFα↑ (Zou et al. 2009)”. Moreover, the DILIrank result in data set [7] is listed as “most”. Also, the DILIst in data set [8] is 1.

As for `O=C(O)c1cc(/N=N/c2ccc(S(=O)(=O)Nc3ccccn3)cc2)ccc1O` [SSZ, sulfasalazine], in the data set with IL-6 [1], the “group by drug-dependent IL-6 production” value is on record as “no dose-dependent changes” and the IL-6 response entry was “no change”. Moreover, the maximum concentration (Cmax) in data set [5] (setting [14]) is 17.6 µM. For the same compound, the “Reported human responses: NF-κB” value in the data set with NF-κB is listed as “NF-κB inhibitor (Wahl et al. 1998)”. Moreover, in the data set with IL-6 [13], the “Reported in-vivo (murine) responses: IL-6” value is listed as “IL-6↓ (Dik et al. 2018)”.
